The values below come from ChEMBL document CHEMBL1152190, “Synthesis of spiro-1,2-dioxolanes and their activity against Plasmodium falciparum” (Bioorg Med Chem Lett, 2008).

A word on the pEC50: it is the EC50 on a negative log10 scale, so that one unit is a factor of ten. A high value points to a low EC50.

pEC50: −log10 of the molar value. Calls of active or inactive are those of the source. No cut-off for these calls is given here. Some results are limits rather than exact numbers.

For test [1], the system named is Plasmodium falciparum. Nature of the test: Antimalarial activity as reduced parasitaemia after 72 hrs against chloroquine-sensitive Plasmodium falciparum 3D7 in human erythrocytes by DAPI stain. Format: functional, organism-based. As to conditions: 3D7, 72 h.
Test [2] has as its system Heme. As to the kind of experiment: Inhibition of heme crystallization by parasite-independent assay. The class given is functional.
The subject of test [3] is Plasmodium falciparum. Nature of the test: Antimalarial activity as reduced parasitaemia after 72 hrs against chloroquine-resistant Plasmodium falciparum Dd2 in human erythrocytes by DAPI stain. The class given is functional, organism-based. As to conditions: Dd2, 72 h.
The subject of test [4] is Plasmodium falciparum. As to the kind of experiment: Antimalarial activity as reduced parasitaemia after 72 hrs against chloroquine-resistant Plasmodium falciparum 7G8 in human erythrocytes by DAPI stain. As to conditions: 7G8, 72 h. The class given is functional, organism-based.
Test [5] concerns Plasmodium falciparum. As to the kind of experiment: Antimalarial activity as reduced parasitaemia after 72 hrs against chloroquine-resistant Plasmodium falciparum 106/1 in human erythrocytes by DAPI stain. The class given is functional, organism-based. As to conditions: 106/1, 72 h.
The test system of test [6] is Plasmodium falciparum. As to the kind of experiment: Antimalarial activity as reduced parasitaemia after 72 hrs against chloroquine-resistant Plasmodium falciparum FCB in human erythrocytes by DAPI stain. The class given is functional, organism-based.
Test [7] has as its system Plasmodium falciparum. As to the kind of experiment: Antimalarial activity against Plasmodium falciparum NF54. Format: functional, organism-based.
The subject of test [8] is Plasmodium falciparum. As to the kind of experiment: Antimalarial activity against Plasmodium falciparum K1. Format: functional, organism-based.

In the case of `CC1CCCC2(C1)CC(C)(CCO)OO2` (mixture of isomers), the figures for the negative-log EC50 (pEC50) in test [1] and in test [3] were 6.62 and 6.83, respectively. Moreover, the outcome in test [2] was inactive.

Regarding `CC1(CCOCc2ccccc2)CC2(CCC(C(C)(C)C)CC2)OO1` (mixture of isomers), the results for the pEC50 in test [1] and in test [3] were 7.07 and 7.13, respectively. For the same molecule, in test [2], the outcome was inactive.

In the case of `CC1(CCOCc2ccccc2)CC2(CCCCC2)OO1` (stereo unspecified), the pEC50 was 6.85 in test [1] and 6.84 in test [3]. In addition, the result in test [2] was inactive.

Consider `CCN(CC)CCCC(C)Nc1ccnc2cc(Cl)ccc12` (stereo unspecified) [CHLOROQUINE], for which the pEC50 is 7.34 in test [4]; 8.15 in test [1]; 7.85 in test [5]; 7.28 in test [6]; 7.18 in test [3].

On to `C1CCC2(CC1)OOC1(O2)C2CC3CC(C2)CC1C3` (stereo unspecified), for which the pEC50 in test [7] was 8.28; in test [8], 8.44.

Turning to `CC(C)(CO)CC1(C)C[C@]2(CC[C@H](C)CC2)OO1` (stereo partly specified), the pEC50 in test [1] was 6.48; in test [3] it was 6.05.

As to `C1CCC2(CC1)CC1(OO2)C2CC3CC(C2)CC1C3` (stereo unspecified), the pEC50 in test [7] and in test [8] was less than 5.70 in each case. The result in test [2] was inactive.

`C1CCC2(CC1)CC1(CCCCC1)OO2`: the negative logarithm of the EC50 (pEC50) in test [7] is 6.28; in test [8] it was 6.71.

On to `CC1(CC(=O)NCCNc2ccnc3cc(Cl)ccc23)CC2(CCCCC2)OO1` (stereo unspecified), for which the pEC50 in test [4] is 8.10; in test [1], 8.30; in test [5], 7.66; in test [6], 7.80; in test [3], 8.22. For the same molecule, the result in test [2] was inactive.

For the molecule `CCNC(=O)CC1(C)CC2(CCCCC2)OO1` (stereo unspecified), the pEC50 in test [4] is 7.08; in test [1], 6.31; in test [5], 6.85; in test [6], 6.45; in test [3], 7.00.

Turning to `CC(=O)OCCC1(C)CC2(CCCC(C)C2)OO1` (mixture of isomers), the figures for the negative logarithm of the EC50 (pEC50) in test [1] and in test [3] were 6.96 and 6.94, respectively. The result in test [2] was inactive.

In the case of `CC1(CC(=O)NCc2ccc(-c3ccccc3)cc2)CC2(CCCCC2)OO1` (stereo unspecified), the pEC50 is 7.00 in test [1] and 7.11 in test [3]. Besides, the result in test [2] was inactive.

Consider `CC1(CC(=O)NCC2C3CC4CC(C3)CC2C4)CC2(CCCCC2)OO1` (stereo unspecified), for which the results for the pEC50 in test [1] and in test [3] were 7.09 and 7.24, respectively. Besides, the result in test [2] was inactive.

Regarding `CC1CCC2(CC1)CC(C)(CCOCc1ccccc1)OO2` (mixture of isomers), the figures for the pEC50 in test [1] and in test [3] were 6.26 and 7.23, respectively. The outcome in test [2] was inactive.

As to `COCCC1(C)CC2(CCCC(C)C2)OO1` (mixture of isomers), the pEC50 in test [1] was 7.16; in test [3] it was 7.21. Also, the outcome in test [2] was inactive.

With `CC1CCCC2(C1)CC(C)(CC(=O)O)OO2` (mixture of isomers), the negative-log EC50 (pEC50) in test [1] and in test [3] was less than 6.00 throughout.

On to `CC(C)(N)CNC(=O)CC1(C)CC2(CCCCC2)OO1` (stereo unspecified), for which the pEC50 in test [1] was 7.21; in test [3], 6.97. For the same molecule, the outcome in test [2] was inactive.

`NCCNc1ccnc2cc(Cl)ccc12`: the negative-log EC50 (pEC50) in test [1] was 7.24; in test [3] it was 6.81. Also, the result in test [2] was inactive.

Take `CC1CCCC2(C1)CC(C)(CCOCc1ccccc1)OO2` (mixture of isomers): the negative logarithm of the EC50 (pEC50) in test [1] was 7.04; in test [3], 6.82. Moreover, in test [2], the outcome was inactive.

For `C[C@@H]1CC[C@H]2[C@@H](C)C(=O)O[C@@H]3O[C@@]4(C)CC[C@@H]1[C@]32OO4` [ARTEMISININ], the pEC50 in test [4] is 7.32; in test [1] it was 8.40; in test [5], 7.89; in test [6], 8.10; in test [3], 8.40.

For the molecule `O=C(CN1CCC2(CCCCC2)C1)NCCNc1ccnc2cc(Cl)ccc12`, the negative-log EC50 (pEC50) in test [4] is 7.04; in test [1], 7.16; in test [5] it was 7.28; in test [6], 7.10; in test [3], 7.11. In test [2], the result was inactive.
